The text below walks through data of PMC3770053 (Biochemistry, 2013).

Holding throughout (experiment): stopped-flow fluorescence titration, T
Type in all cases: binding

For experiment [1], the target named is Pol I(KF) (Klenow fragment of E. coli DNA polymerase I), N-His6/D424A/L744C/C907S, termed WT (Escherichia coli, UniProt P00582, C907S/D424A/E710Q/L744C).
Experiment [2] has as its target Pol I(KF) (Klenow fragment of E. coli DNA polymerase I), N-His6/D424A/L744C/C907S, termed WT (Escherichia coli, UniProt P00582, C907S/D424A/E710A/L744C).
Experiment [3] deals with Pol I(KF) (Klenow fragment of E. coli DNA polymerase I), N-His6/D424A/L744C/C907S, termed WT (Escherichia coli, UniProt P00582, C907S/D424A/L744C/Y766F).
The target of experiment [4] is Pol I(KF) (Klenow fragment of E. coli DNA polymerase I), N-His6/D424A/L744C/C907S, termed WT (Escherichia coli, UniProt P00582, C907S/D424A/L744C/Y766A).
In experiment [5] the target is Pol I(KF) (Klenow fragment of E. coli DNA polymerase I), N-His6/D424A/L744C/C907S, termed WT (Escherichia coli, UniProt P00582, C907S/D424A/L744C).

The term Kd denotes a measure of binding affinity in units of concentration. High values mean lower affinity, low ones higher affinity. Turning to `Nc1nc2c(ncn2[C@H]2C[C@H](O)[C@@H](COP(=O)(O)OP(=O)(O)OP(=O)(O)O)O2)c(=O)[nH]1` [dGTP], the Kd in experiment [1] was found to be 10 ± 1 µM; in experiment [2] it was 46 ± 13 µM; in experiment [3] it was 5.9 ± 2.4 µM; in experiment [4], 2.9 ± 2 µM.
Regarding `Nc1nc2c(ncn2[C@@H]2O[C@H](COP(=O)(O)OP(=O)(O)OP(=O)(O)O)[C@@H](O)[C@H]2O)c(=O)[nH]1` [rGTP], the values for the dissociation constant Kd in experiment [5], in experiment [3] and in experiment [4] were 41 µM, 68 µM and 13 µM, respectively.
